Test results from US11208400B2, “Substituted 6-(1H-pyrazol-1-yl)pyrimidin-4-amine derivatives and uses thereof” (Bayer Aktiengesellschaft, priority 2016, dated 2021).

target: T1, human Npt2a (Homo sapiens, UniProt Q06495); assay: Npt2a activity cell based assay, membrane potential dye, CHO T-REx hNpt2a cells; settings: doxycycline-induced, depolarization by sodium phosphate influx, average or median values if tested more than once
T1 construct: expressed in transfected cells
T1 sequence (Q06495 1-639): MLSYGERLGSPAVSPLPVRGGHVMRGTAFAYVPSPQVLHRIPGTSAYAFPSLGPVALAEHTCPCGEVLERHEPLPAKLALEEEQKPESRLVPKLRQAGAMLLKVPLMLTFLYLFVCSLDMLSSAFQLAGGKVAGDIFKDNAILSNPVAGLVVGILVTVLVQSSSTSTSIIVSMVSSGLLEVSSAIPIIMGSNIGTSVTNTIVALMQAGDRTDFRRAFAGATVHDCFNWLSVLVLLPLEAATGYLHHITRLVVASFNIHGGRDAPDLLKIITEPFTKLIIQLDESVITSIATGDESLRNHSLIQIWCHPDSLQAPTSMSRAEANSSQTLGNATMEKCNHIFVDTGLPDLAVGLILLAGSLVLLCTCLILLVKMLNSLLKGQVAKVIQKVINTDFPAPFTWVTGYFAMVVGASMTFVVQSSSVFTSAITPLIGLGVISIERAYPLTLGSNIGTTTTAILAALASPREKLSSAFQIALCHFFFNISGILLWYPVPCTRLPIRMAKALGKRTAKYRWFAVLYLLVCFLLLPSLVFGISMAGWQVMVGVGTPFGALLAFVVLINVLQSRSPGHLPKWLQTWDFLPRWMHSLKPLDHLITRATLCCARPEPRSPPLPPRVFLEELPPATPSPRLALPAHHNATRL
Summary of the method: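 Cells were doxycycline-induced CHO T-REx hNpt2a, dye-loaded and pretreated 5 min at RT with 1 nM–50 μM compound in Na-free pH 7.4 buffer. IC50 was fit to the post/pre-trigger fluorescence ratio.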

Structure (SMILES) | IC50
COc1c(-c2ccc(C#N)cc2)nn(CC2CC2)c1Nc1cc(-n2nc(C)cc2C)ncn1 [Example 316, 4-[1-(cyclopropylmethyl)-5-{[6-(3,5-dimethyl-1H-pyrazol-1-yl)pyrimidin-4-yl]amino}-4-methoxy-1H-pyrazol-3-yl]benzonitrile] | 81 nM
CNc1ccc(-c2nn(CC3CC3)c(Nc3cc(-n4nc(C)cc4C)ncn3)c2C)cc1 [Example 480, N-{1-(cyclopropylmethyl)-4-methyl-3-[4-(methylamino)phenyl]-1H-pyrazol-5-yl}-6-(3,5-dimethyl-1H-pyrazol-1-yl)pyrimidin-4-amine] | 375 nM
CCc1c(Nc2cc(-n3nc(C)c(C(=O)OC(C)(C)C)c3C(F)F)ncn2)nn(C)c1-c1ccc(F)cc1 [Example 166, tert-butyl 5-(difluoromethyl)-1-(6-{[4-ethyl-5-(4-fluorophenyl)-1-methyl-1H-pyrazol-3-yl]amino}pyrimidin-4-yl)-3-methyl-1H-pyrazole-4-carboxylate] | 9 nM
Cc1nn(-c2cc(Nc3nn(C)c(-c4ccc(F)cc4)c3C)ncn2)c(C)c1C#N [Example 348, 1-(6-{[5-(4-fluorophenyl)-1,4-dimethyl-1H-pyrazol-3-yl]amino}pyrimidin-4-yl)-3,5-dimethyl-1H-pyrazole-4-carbonitrile] | 15 nM
COc1c(Nc2cc(-n3nc(C)cc3C(F)F)ncn2)nn(C)c1-c1ccc(C#N)cc1 [Example 410, 4-[3-({6-[5-(difluoromethyl)-3-methyl-1H-pyrazol-1-yl]pyrimidin-4-yl}amino)-4-methoxy-1-methyl-1H-pyrazol-5-yl]benzonitrile] | 2 nM
Cc1nn(-c2cc(Nc3c(C)c(-c4ccc(C(F)(F)F)cc4)nn3CC3CC3)ncn2)c(C)c1Cl [Example 311, 6-(4-chloro-3,5-dimethyl-1H-pyrazol-1-yl)-N-{1-(cyclopropylmethyl)-4-methyl-3-[4-(trifluoromethyl)phenyl]-1H-pyrazol-5-yl}pyrimidin-4-amine] | 340 nM
Cc1nn(-c2cc(Nc3c(C)nn(-c4ccc(C#N)cc4)c3C)ncn2)c(C)c1Cl [Example 208, 4-(4-{[6-(4-chloro-3,5-dimethyl-1H-pyrazol-1-yl)pyrimidin-4-yl]amino}-3,5-dimethyl-1H-pyrazol-1-yl)benzonitrile] | 465 nM
Cc1nn(-c2cc(Nc3c(C4CC4)c(-c4ccc(F)cc4)nn3C)ncn2)c2ccccc12 [Example 47, N-[4-cyclopropyl-3-(4-fluorophenyl)-1-methyl-1H-pyrazol-5-yl]-6-(3-methyl-1H-indazol-1-yl)pyrimidin-4-amine] | 89 nM
CCOC(=O)c1c(C)nn(-c2cc(Nc3nn(C)c(-c4ccc(F)cc4)c3Cl)ncn2)c1C [Example 356, ethyl 1-(6-{[4-chloro-5-(4-fluorophenyl)-1-methyl-1H-pyrazol-3-yl]amino}pyrimidin-4-yl)-3,5-dimethyl-1H-pyrazole-4-carboxylate] | 2 nM
CCOC(=O)c1c(C)nn(-c2cc(Nc3n[nH]c(-c4ccccc4)c3Cl)ncn2)c1C [Example 51, ethyl 1-{6-[(4-chloro-5-phenyl-1H-pyrazol-3-yl)amino]pyrimidin-4-yl}-3,5-dimethyl-1H-pyrazole-4-carboxylate] | 100 nM
Cc1nn(-c2cc(Nc3c(C)c(-c4ccc(C#N)cc4)nn3C)ncn2)c2c1C(C)(O)CC2 (racemic) [Example 227, 4-[5-({6-[(±)-4-hydroxy-3,4-dimethyl-5,6-dihydrocyclopenta[c]pyrazol-1(4H)-yl]pyrimidin-4-yl}amino)-1,4-dimethyl-1H-pyrazol-3-yl]benzonitrile] | 16 nM
Cc1cc(C)n(-c2cc(Nc3nn(C)c(-c4ccc(F)cc4)c3C)ncn2)n1 [Example 73, 6-(3,5-dimethyl-1H-pyrazol-1-yl)-N-[5-(4-fluorophenyl)-1,4-dimethyl-1H-pyrazol-3-yl]pyrimidin-4-amine] | 15.7 nM
COC(C)c1c(C)nn(-c2cc(Nc3c(C)c(-c4ccc(F)cc4)nn3CC3CC3)ncn2)c1C (single isomer, unassigned) [Example 328, N-[1-(cyclopropylmethyl)-3-(4-fluorophenyl)-4-methyl-1H-pyrazol-5-yl]-6-{4-[1-methoxyethyl]-3,5-dimethyl-1H-pyrazol-1-yl}pyrimidin-4-amine] | 4 nM
Cc1cc(C(F)F)n(-c2cc(Nc3nn(C)c(-c4ccc(F)cc4)c3C3CC3)ncn2)n1 [Example 95, N-[4-cyclopropyl-5-(4-fluorophenyl)-1-methyl-1H-pyrazol-3-yl]-6-[5-(difluoromethyl)-3-methyl-1H-pyrazol-1-yl]pyrimidin-4-amine] | 63.5 nM
CCOC(=O)c1cc(C)nn1-c1cc(Nc2c(C)c(-c3ccc(C#N)cc3)nn2CC2CC2)ncn1 [Example 258, ethyl 1-(6-{[3-(4-cyanophenyl)-1-(cyclopropylmethyl)-4-methyl-1H-pyrazol-5-yl]amino}pyrimidin-4-yl)-3-methyl-1H-pyrazole-5-carboxylate] | 2800 nM
CCc1c(Nc2cc(-n3cc4c(n3)CCC4)ncn2)n[nH]c1-c1ccc(F)cc1 [Example 20, 6-(5,6-dihydrocyclopenta[c]pyrazol-2(4H)-yl)-N-[4-ethyl-5-(4-fluorophenyl)-1H-pyrazol-3-yl]pyrimidin-4-amine] | 120 nM
CCc1c(Nc2cc(-n3ncc4c3CN(C(=O)OC(C)(C)C)C4)ncn2)n[nH]c1-c1ccc(F)cc1 [Example 37, tert-butyl 1-(6-{[4-ethyl-5-(4-fluorophenyl)-1H-pyrazol-3-yl]amino}pyrimidin-4-yl)-4,6-dihydropyrrolo[3,4-c]pyrazole-5(1H)-carboxylate] | 1700 nM
Cc1cc(C)n(-c2cc(Nc3c(C)c(-c4ccc(F)cn4)nn3CC3CC3)ncn2)n1 [Example 421, N-[1-(cyclopropylmethyl)-3-(5-fluoropyridin-2-yl)-4-methyl-1H-pyrazol-5-yl]-6-(3,5-dimethyl-1H-pyrazol-1-yl)pyrimidin-4-amine] | 410 nM
Cc1nn(-c2cc(Nc3c(Cl)c(-c4ccc(F)cc4)nn3C)ncn2)c(C)c1Cl [Example 88, 6-(4-chloro-3,5-dimethyl-1H-pyrazol-1-yl)-N-[4-chloro-3-(4-fluorophenyl)-1-methyl-1H-pyrazol-5-yl]pyrimidin-4-amine] | 28.5 nM
Cc1nn(-c2cc(Nc3c(C)c(-c4ccc(C#N)cc4)nn3CC3CC3)ncn2)c(C)c1C(O)C(F)(F)F (single isomer, unassigned) [Example 359, 4-{1-(cyclopropylmethyl)-5-[(6-{3,5-dimethyl-4-[2,2,2-trifluoro-1-hydroxyethyl]-1H-pyrazol-1-yl}pyrimidin-4-yl)amino]-4-methyl-1H-pyrazol-3-yl}benzonitrile] | 15 nM
CCc1c(Nc2cc(-n3nc(C)c4ccncc43)ncn2)nn(C)c1-c1ccc(F)cc1 [Example 168, N-[4-ethyl-5-(4-fluorophenyl)-1-methyl-1H-pyrazol-3-yl]-6-(3-methyl-1H-pyrazolo[3,4-c]pyridin-1-yl)pyrimidin-4-amine] | 15 nM
CCOC(=O)c1cc(C)n(-c2cc(Nc3nn(C)c(-c4ccc(F)cc4)c3CC)ncn2)n1 [Example 83, ethyl 1-(6-{[4-ethyl-5-(4-fluorophenyl)-1-methyl-1H-pyrazol-3-yl]amino}pyrimidin-4-yl)-5-methyl-1H-pyrazole-3-carboxylate] | 1300 nM
